{"source": "patent US20230355713A1", "about": "“PEPTIDE FOR THERAPEUTIC APPLICATIONS IN THE DERMATOLOGICAL FIELD” (Dompe' Farmaceutici S.P.A., priority 2020, published 2023)", "key": {"[1]": {"test_system": "primary cell cultures of normal human melanocytes", "assay": "In vitro melanin production by melanocytes (melanin content by ELISA)", "type": "cell-based", "conditions": "concentration at which 50% of the maximum concentration of cellular melanin is observed; cultured for one week", "protocol": "The in vitro ability of the NGF 1-14 peptide and the NGF whole protein to activate melanin production by melanocytes was compared.\nAccording to already established protocols, primary cell cultures of normal human melanocytes were seeded in Petri dishes and cultured for one week, with and without the presence of the NGF 1-14 peptide at various concentrations, using the whole human NGF protein as a control. The melanin content was measured with the ELISA enzyme immunoassay. The maximum melanin concentration, measured as the difference from baseline, was experimentally determined from the plateau of the dose response curves of NGF and NGF 1-14. The EC50 represents the concentration of NGF 1-14 or NGF at which 50% of the maximum concentration of cellular melanin is observed."}, "sensory nerve fibers": {"test_system": "sensory nerve fibers", "assay": "Histological test: density of sensory nerve fibers in skin biopsies (NF200, TRPV1 antibodies)", "type": "in vivo, SCF transgenic mice of the C57BL6 line", "conditions": "200 μg/mL in base cream, after the 8-week treatment of example 2a", "source_text": "The in vivo ability of the NGF 1-14 peptide and the NGF whole protein to increase the density of nerve endings was compared.\nAfter the treatment described in example 2a, the animals were sacrificed and skin samples (3 biopsies per point) were taken both from the area treated with NGF1-14 or with NGF, and from the untreated area, for each animal, for the purpose of histological examination.\nTo evaluate the density of sensory nerve fibers, antibodies directed against the neurofilament protein 200 (NF200; Sigma) specific for large diameter fibers, and antibodies directed against the transient receptor potential vanilloid 1 (TRPV1, Neuromics) were used to measure peripheral sensory fibers (small diameter)."}, "[2]": {"test_system": "mouse model of human vitiligo", "assay": "In vivo efficacy test: skin re-pigmentation, depigmentation score 0 to 5", "design": "species or system SCF transgenic mice of the C57BL6 line", "conditions": "200 μg/mL in base cream, topical, twice a day for 8 weeks; 0 to 5 point scale", "protocol": "The in vivo capacity of skin re-pigmentation by the NGF 1-14 peptide and the whole NGF protein was compared.\nThe study was conducted on a mouse model of human vitiligo.\nSCF transgenic mice of the C57BL6 line, treated for 10-12 weeks to induce vitiligo using CD8+T cells specific for melanocytes, were shaved twice a week in the dorsal part affected by depigmentation, with an electric razor, in an area of about 6 cm×6 cm. The animals were divided into two groups of equal numbers (8 animals per group). On a first group of animals, topical administration was carried out in two sites of the shaved area spaced from both sides of the midline, applying on the left a topical preparation containing 200 μg/mL of NGF peptide in a base cream vehicle, while on the right side only the base cream (control) was applied. The same procedure was repeated on the second group of animals, applying on the left a topical preparation containing 200 μg/mL of NGF 1-14 peptide in a base cream vehicle, while on the right side only the base cream (control) was applied.\nThe application was spread evenly twice a day for 8 weeks, in the central part of the shaved area, on a surface of about 2 cm×2 cm. Starting from the second day and thereafter, the areas of interest were cleaned with a cloth before applying the preparations. The animals were kept away from possible sources of ultraviolet light irradiation.\nQuantification of epidermal depigmentation was performed using a subjective scoring system based on a 0 to 5 point scale, where 5 represents the most severe degree of depigmentation, reported in the literature (Rebecca L. et al., Curr Protoc Immunol. (2019), 124(1)—February). A trained researcher blinded to the details of the experiment performed the evaluation at the treated site."}, "Sprague-Dawley rats": {"test_system": "Sprague-Dawley rats", "assay": "In vivo tolerability test: plantar thermal hyperalgesia test (Hargreaves apparatus), paw retraction latency", "conditions": "for hyperalgesic activity compared to the saline group (paw retraction latency): 1, 3, 5 and 24 h after injection, P<0.001", "quoted_text": "The in vivo intra-implant tolerability of the NGF 1-14 peptide was evaluated in comparison with the whole protein NGF.\nTyrode's isotonic solution containing the rh-NGF protein in concentrations from 5 to 20 μg/mL and the vehicle was administered intra-implantally in the dorsal region of Sprague-Dawley rats (10 animals for each concentration), in a volume of 0.05 mL using a very fine syringe.\nTyrode's isotonic solution containing the murine-NGF protein in concentrations from 5 to 20 μg/mL and the vehicle was administered intra-implantally in the dorsal region of Sprague-Dawley rats (10 animals for each concentration), in a volume of 0.05 mL using a very fine syringe.\nTyrode's isotonic solution containing the NGF 1-14 peptide in concentrations from 5 to 20 μg/mL and the vehicle was administered intra-implantally in the dorsal region of Sprague-Dawley rats (10 animals for each concentration), in a volume of 0.05 mL using a very fine syringe.\nThe solution was administered intra-implantally in the dorsal region of Sprague-Dawley rats (10 animals for each concentration), in a volume of 0.05 mL using a very fine syringe.\nAfter the intra-implant injections, the Plantar thermal hyperalgesia test was conducted. In particular: after 1, 3, 5 and 24 h the thermal sensitivity was determined using the Hargreaves apparatus (HA).\nHypersensitivity to heat was assessed using the rat plantar test apparatus (Ugo Basile, Italy) following the method described by Hargreaves et al. (1988). The plantar test uses three perspex boxes (22×19×25 cm) placed on an elevated glass table. The rats were housed in each box, so that 3 rats could be tested simultaneously in a single apparatus and allowed to acclimate for at least 10 minutes. A mobile infrared heat source was applied to the plantar surface of the hind legs.\nPaw retraction latency was defined as the time (in seconds) it took the rat to remove the hind leg from the heat source. The heat source was calibrated to an intensity of 15 IR and a cut-off of 50 sec was applied to prevent tissue damage. The test was performed at 1, 3, 5 and 24 hours after the injection. Each paw was tested twice per session (raw data represents the average of 2 measurements performed at an interval of approximately 5 minutes)."}}, "note": "Where no end group is shown, it is not given here."}
{"substance": "NGF: Nerve growth factor, whole human NGF protein used as a control", "values": [{"measurement": "EC50", "setting": "[1]", "value": 0.06, "unit": "nM"}, {"measurement": "Nerve endings density (mm/mm^3) NF200", "setting": "sensory nerve fibers; large diameter fibers", "value": "350 + 50 mm/mm^3"}, {"measurement": "Nerve termination density unit of measurement (mm/mm^3) TRPV1", "setting": "sensory nerve fibers; small diameter peripheral sensory fibers", "value": "200 + 36 mm/mm^3"}, {"measurement": "percentage of animals with a degree of depigmentation less than or equal to 2", "setting": "[2]", "value": 37.5, "unit": "%"}, {"measurement": "percentage of animals with a moderate degree of depigmentation equal to 3", "setting": "[2]", "value": 37.5, "unit": "%"}, {"measurement": "percentage of animals with a severe degree of depigmentation greater than or equal to 4", "setting": "[2]", "value": 25, "unit": "%"}]}
{"substance": "SSSHPIFHRGEFSV [NGF 1-14, SSSHPIFHRGEFSV]", "values": [{"measurement": "EC50", "setting": "[1]", "value": 1200, "unit": "nM"}, {"measurement": "hyperalgesic activity compared to the saline group (paw retraction latency)", "setting": "Sprague-Dawley rats; 10 μg/50 μL", "value": "showed hyperalgesic activity"}, {"measurement": "hyperalgesic activity compared to the saline group (paw retraction latency)", "setting": "Sprague-Dawley rats; 20 μg/50 μL", "value": "showed hyperalgesic activity"}]}
{"substance": "rh-NGF: rh-NGF protein, whole protein NGF comparator in the tolerability test", "values": [{"measurement": "hyperalgesic activity compared to the saline group (paw retraction latency)", "setting": "Sprague-Dawley rats; 10 μg/50 μL", "value": "showed hyperalgesic activity"}, {"measurement": "hyperalgesic effect compared with NGF 1-14 at 10 and 20 μg/50 μL", "setting": "Sprague-Dawley rats; 10 μg/50 μL, P<0.05 at 1-3-24 h and P<0.01 at 5 h", "value": "more pronounced significant hyperalgesic effect"}]}
